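Dose response: 5 concentrations. Exposure: 48 h. Format: 96-well plates. Endpoint: linear interpolation; highest concentration if not reached. GI50 marks 50% less growth. The concentration for full growth arrest is given as TGI.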
Key:
Test in all cases: NCI-60 cell line screen, 48 h
HOP-62 NSCLC = system: HOP-62 NSCLC
OVCAR-8 ovarian = system: OVCAR-8 ovarian
SK-OV-3 ovarian = system: SK-OV-3 ovarian
SF-295 CNS = system: SF-295 CNS
SNB-19 CNS = system: SNB-19 CNS
A549 NSCLC = system: A549 NSCLC
EKVX NSCLC = system: EKVX NSCLC
SN12C renal = system: SN12C renal
TK-10 renal = system: TK-10 renal
SK-MEL-5 melanoma = system: SK-MEL-5 melanoma

SMILES	TGI (HOP-62 NSCLC)	TGI (OVCAR-8 ovarian)	TGI (SK-OV-3 ovarian)	TGI (SF-295 CNS)	TGI (SNB-19 CNS)	TGI (A549 NSCLC)	TGI (EKVX NSCLC)	TGI (SN12C renal)	TGI (TK-10 renal)	TGI (SK-MEL-5 melanoma)	GI50 (HOP-62 NSCLC)	GI50 (OVCAR-8 ovarian)	GI50 (SK-OV-3 ovarian)	GI50 (SF-295 CNS)	GI50 (SNB-19 CNS)	GI50 (A549 NSCLC)	GI50 (EKVX NSCLC)	GI50 (SN12C renal)	GI50 (TK-10 renal)	GI50 (SK-MEL-5 melanoma)
CC(=O)OC12C=CC(=O)N1c1ccccc1C(=O)O2 (centres undefined)	> 100 µM	> 100 µM	> 100 µM	> 100 µM	> 100 µM	> 100 µM	> 100 µM	> 100 µM	> 100 µM	> 100 µM	–	–	–	–	–	–	–	–	–	–
C[C@@H]1CC[C@@H]2[C@@H]1[C@H](OC(=O)/C=C/c1ccccc1)[C@]1(C3CCCCC3)C[C@@H](OC(=O)CO)[C@@]2(C)O1	14 µM	13 µM	20.2 µM	13.1 µM	13.6 µM	14.1 µM	15.6 µM	3.56 µM	22.5 µM	6.11 µM	3.3 µM	0.513 µM	6.71 µM	3.6 µM	3.94 µM	4.03 µM	3.47 µM	0.086 µM	9.17 µM	2.36 µM
CCOc1ccc(NC(=O)CC#N)cc1	> 100 µM	> 100 µM	> 100 µM	> 100 µM	> 100 µM	> 100 µM	> 100 µM	> 100 µM	> 100 µM	> 100 µM	–	–	–	–	–	–	–	–	–	–
COc1cccc(C2=NC(C(C)C)CO2)c1 (centres undefined)	> 100 µM	> 100 µM	> 100 µM	> 100 µM	> 100 µM	> 100 µM	> 100 µM	> 100 µM	> 100 µM	> 100 µM	–	–	–	–	–	–	–	–	–	–
Cc1ccc(NC(=O)CCc2cc(C(C)(C)C)nc(=S)[nH]2)cc1C	> 100 µM	> 100 µM	> 100 µM	> 100 µM	> 100 µM	> 100 µM	> 100 µM	> 100 µM	> 100 µM	> 100 µM	–	–	–	–	–	–	–	–	–	–
O=C1C=CC(=O)c2cc3cc(CBr)ccc3cc21	37.8 µM	> 77.3 µM	> 57.6 µM	> 73.9 µM	> 55 µM	–	55.7 µM	2.91 µM	16.7 µM	36 µM	16 µM	5.88 µM	19.1 µM	25.9 µM	18.1 µM	9.07 µM	24.1 µM	0.741 µM	3.54 µM	14.9 µM
CCN1CCC(O)(c2ccc(OC)cc2)C(C(=O)c2ccc(OC)cc2)C1 (centres undefined)	> 100 µM	43.4 µM	> 100 µM	> 100 µM	69.1 µM	37 µM	98 µM	42.5 µM	10.4 µM	29 µM	–	–	–	–	–	–	–	–	–	–
C1CN2CCN3CCN4CCN1[P+]243	> 100 µM	> 100 µM	> 100 µM	> 100 µM	> 100 µM	> 100 µM	> 100 µM	> 100 µM	> 100 µM	> 100 µM	–	–	–	–	–	–	–	–	–	–
COc1ccc(-c2nc3ccc(-c4nc5ccc(N6CCN(c7ccccc7)CC6)cc5[nH]4)cc3[nH]2)cc1OC	6.58 µM	4.56 µM	18.6 µM	4.02 µM	3.59 µM	6.73 µM	5.07 µM	18.6 µM	4.42 µM	3.31 µM	2.04 µM	1.52 µM	5.34 µM	1.73 µM	1.93 µM	2.03 µM	2.29 µM	5.98 µM	2.2 µM	1.47 µM
CCOC(=O)Nc1ccc(C)c(NC(=O)OCC)c1	> 100 µM	> 100 µM	> 100 µM	> 100 µM	> 100 µM	> 100 µM	> 100 µM	> 100 µM	> 100 µM	> 100 µM	–	–	–	–	–	–	–	–	–	–
CC(=O)Oc1c2c(c(O)c3ccccc13)C(n1cnc3c(ncn3C3OC(CO)C4OC(C)(C)OC43)c1=N)CCC2 (centres undefined)	30.6 µM	23.9 µM	33.1 µM	27 µM	30.3 µM	35.4 µM	36.9 µM	37.9 µM	35.9 µM	24.5 µM	–	–	–	–	–	–	–	–	–	–
COc1ccc(-c2nn(-c3ccc(NC(=O)c4ccc(Cl)c(Cl)c4)cc3)cc2-c2ccncc2)cc1Cl	17 µM	> 50 µM	> 50 µM	2.67 µM	> 50 µM	> 50 µM	> 50 µM	> 50 µM	> 50 µM	> 50 µM	1.62 µM	> 25.8 µM	4.29 µM	0.979 µM	4.2 µM	> 12.4 µM	3.25 µM	> 50 µM	> 11.1 µM	1.91 µM
CN1CCOC(c2ccccc2)O1 (centres undefined)	> 100 µM	> 100 µM	> 100 µM	> 100 µM	> 100 µM	> 100 µM	> 100 µM	> 100 µM	> 100 µM	> 100 µM	–	–	–	–	–	–	–	–	–	–
CCCN1C(=O)N(CCC)C2C1NC(=S)N2/N=C/C=C/c1ccccc1OC (centres undefined)	> 100 µM	> 62.6 µM	> 100 µM	29.4 µM	> 100 µM	> 100 µM	> 100 µM	33.3 µM	> 100 µM	15.9 µM	0.713 µM	1.56 µM	0.518 µM	0.487 µM	1.66 µM	0.868 µM	2.22 µM	1.84 µM	12.6 µM	0.516 µM
CCC[CH2][Sn]([Cl])([CH2]CCC)[CH2]CCC	1.13 µM	0.287 µM	0.56 µM	0.245 µM	0.346 µM	0.32 µM	0.364 µM	0.254 µM	0.261 µM	0.808 µM	0.271 µM	0.145 µM	0.181 µM	0.12 µM	0.174 µM	0.132 µM	0.0564 µM	0.119 µM	0.129 µM	0.192 µM
CN1C(=O)N(C)C2C1NN=c1s/c(=C\c3ccc(Cl)cc3Cl)c(=O)n12 (centres undefined)	30.2 µM	> 100 µM	> 100 µM	15.3 µM	> 100 µM	> 100 µM	> 100 µM	> 100 µM	> 92.4 µM	1.78 µM	0.116 µM	0.399 µM	0.754 µM	0.0579 µM	0.339 µM	0.243 µM	0.425 µM	0.422 µM	10.2 µM	0.167 µM
COc1ccc(CC2NCCc3c2[nH]c2ccccc32)cc1 (centres undefined)	> 100 µM	> 100 µM	> 100 µM	> 100 µM	> 100 µM	> 100 µM	> 100 µM	> 100 µM	> 100 µM	> 100 µM	–	–	–	–	–	–	–	–	–	–
S=c1sc2c(Cl)nc(Cl)nc2n1-c1ccccc1	> 100 µM	> 100 µM	> 100 µM	> 100 µM	> 100 µM	> 100 µM	> 100 µM	> 100 µM	> 100 µM	> 100 µM	–	–	–	–	–	–	–	–	–	–
O=C1OCC2=C1C(c1cccc(Br)c1)c1cc3c(cc1N2CCO)CCC3 (centres undefined)	7.11 µM	0.852 µM	1.58 µM	8.36 µM	9.98 µM	5.54 µM	19.5 µM	6.9 µM	11.3 µM	0.428 µM	0.0888 µM	0.14 µM	0.102 µM	0.034 µM	0.209 µM	0.133 µM	0.682 µM	0.246 µM	0.736 µM	0.0482 µM
CCn1c2ccccc2c2cc(NC(=O)Nc3ccc([N+](=O)[O-])cc3C)ccc21	55.2 µM	37.7 µM	> 100 µM	9.13 µM	> 100 µM	15.6 µM	> 100 µM	> 100 µM	15.3 µM	> 100 µM	5.02 µM	4.61 µM	18.1 µM	2.29 µM	8.95 µM	3.01 µM	5.35 µM	9.3 µM	3.62 µM	14.3 µM
CCCNC(=S)NNC(=O)CSc1nc(-c2ccccc2)c(-c2ccccc2)[nH]1	> 100 µM	> 100 µM	> 100 µM	> 100 µM	> 100 µM	> 100 µM	89.7 µM	> 100 µM	> 100 µM	62.1 µM	–	–	–	–	–	–	–	–	–	–
CC[C@H]1[C@@H]2C=C[C@@H]3[C@H]4C/C=C\C(=O)NCCC[C@@H]5NC(=O)/C(=C(O)/C=C/[C@@H]4C[C@@H]3[C@H]2C[C@H]1C)C5=O	3.03 µM	1.37 µM	3.48 µM	2.8 µM	2.42 µM	3.99 µM	3.31 µM	1.99 µM	2.71 µM	2.2 µM	1.4 µM	0.333 µM	1.73 µM	1.42 µM	1.04 µM	2 µM	1.45 µM	0.569 µM	1.35 µM	0.9 µM
Cc1ccccc1N1C(=O)C2C=CC(n3[nH]c(=O)n(Cc4ccccc4)c3=O)CC2C1=O (centres undefined)	> 100 µM	> 100 µM	> 100 µM	> 100 µM	> 100 µM	> 100 µM	> 100 µM	> 100 µM	> 100 µM	> 100 µM	–	–	–	–	–	–	–	–	–	–
O=C1Nc2ccccc2/C1=N\[O-].O=C1Nc2ccccc2/C1=N\[O-].[Cu+2]	> 100 µM	> 100 µM	> 100 µM	> 100 µM	> 100 µM	> 100 µM	> 100 µM	> 100 µM	> 100 µM	> 100 µM	> 100 µM	> 100 µM	> 100 µM	> 100 µM	> 100 µM	> 100 µM	> 100 µM	> 100 µM	> 100 µM	> 100 µM

Source: PubChem BioAssay (NCI)
